Test [1] relates to coagulant serine proteases. Kind of test: initial screening, coagulant activity of snake venoms. The following applies: first screening assay, FIG. 2. It counts as biochemical, Bothrops jararacussu, B. moojeni, B. alternatus. The procedure:
(§1) This screening was for the venoms of the Bothrops jararacussu, B. moojeni, B. alternatus and B. jararacussu BjussuMP-I snakes to determine promising compounds.
(§2) Aliquots of plasma (0.2 mL) were incubated with venom or venom/inhibitor (50 μL) in varying proportions (m/m) during a period of 30 minutes at 37° C. and the coagulation time was verified. The control tubes included plasma incubated with phosphate buffered saline solution (PBS)+calcium or dimethyl sulphoxide or only the compound.

In test [2] the test system is haemorrhagic metalloprotease of the venoms. Kind of test: initial screening, haemorrhagic metalloprotease of the venoms. Details: species or system Bothrops jararacussu, B. moojeni, B. alternatus. The following applies: first screening assay, FIG. 2.
From the text: as §1

In test [3] the test system is venom of Bothrops and the isolated metalloprotease. Kind of test: haemorrhage induced by Bothrops venoms and isolated metalloprotease (FIG. 3A). It counts as in vivo. The following applies: venom of Bothrops and Crotalus snakes and isolated metalloprotease. The procedure: FIG. 3A: Effect of compound 2 on the haemorrhage induced by the venom of Bothrops and the isolated metalloprotease. FIG. 3B: Effect of compound 2 on the proteolytic activity induced by the venom of Bothrops and the isolated metalloprotease. FIG. 3C: Effect of the coagulant activity of compound 2 induced by the venoms of Bothrops and Crotalus and the isolated serine protease. The results are expressed by the mean±standard deviation (SD) (n=6).
Therefore, further assays were performed to determine the efficiency of compound 2 for various other activities. FIG. 3A presents the effects of 2 on haemorrhages induced by the different venoms of the Bothrops genus snakes and an isolated metalloprotease.

In test [4] the test system is snake venoms and isolated metalloprotease. The test can be described thus: proteolytic activity in casein (FIG. 3B). It counts as biochemical, Bothrops. The following applies: induced by snake venoms and isolated metalloprotease.
Test [5] addresses Class I metalloprotease neuwiedase (Bothrops pauloensis, UniProt Q9I9R4). It counts as biochemical, B. neuwiedi.
The test system of test [6] is snake venoms and isolated serine protease. Kind of test: coagulant activity in human plasma (FIG. 3C). The following applies: induced by snake venoms and isolated serine protease. The format is biochemical, Bothrops and Crotalus. As for the experimental part:
as §2

In test [7] the test system is venom of B. jararacussu (BjussuSP-I). Kind of test: coagulant activity, B. jararacussu venom. It counts as biochemical. The following applies: FIG. 3C. As for the experimental part:
as §2

Test [8] concerns venom of C. d. terrificus (gyroxin). Kind of test: coagulant activity, C. d. terrificus venom. It counts as biochemical. The following applies: FIG. 3C. The procedure: as §2
Test [9] concerns venom of B. jararacussu, BjussuSP-I and BjussuMP-I. Kind of test: fibrinogenolytic activity on bovine fibrinogen, SDS-PAGE (FIG. 4A). The following applies: enzymes incubated with inhibitor 30 minutes at 37° C., 1:10 by mass. The format is biochemical. As for the experimental part: Lanes: 1—Fibrinogen+venom of B. jararacussu (4 μg)+2 (40 μg); 2—Fibrinogen+enzyme BjussuSP-I (2 μg)+2 (20 μg); 3—Fibrinogen+BjussuMP-I (2 μg)+2 (20 μg); 4—Fibrinogen control. The enzymes were incubated together with 2 for 30 minutes at 37° C. The results are expressed by the mean±S.D (n=3). (B): Interaction between the venom of the B. jararacussu snake and 2. Samples containing venom/toxin (20 μg) and the […] (600 μg) were incubated for 30 minutes at 37° C. at a ratio of 1:30 (w/w). Lanes: 1—BthTX-I+2; 2—BthTX-II+2; 3—venom of B. jararacussu+2; 4—only BthTX-I; 5—only BthTX-II; 6—only the venom of B. jararacussu.

In test [10] the test system is venoms and isolated PLA2s. The test can be described thus: myotoxic activity in mice (plasma CK). The format is in vivo. The following applies: induced by venoms of B. jararacussu and C. durissus terrificus and isolated PLA2s.
The subject of test [11] is venoms and isolated PLA2s. The test can be described thus: oedema inducing activity in mice. The format is in vivo. The following applies: induced by venoms of B. jararacussu and C. durissus terrificus and isolated PLA2s. The procedure:
The oedemas are induced by the direct injection of venom (20 μg) and purified proteins (20 μg) into the right leg of male Swiss mice (18-22 g). Inhibition activity is verified incubating the venom or isolated protein with the inhibitor in varying concentrations (m/m). The control groups are injected with 50 μL of phosphate buffered saline solution (PBS, pH=7.2) alone, dimethyl sulphoxide (DMSO) or the compounds. Oedema progression is assessed through measurement of the […] using a pachymeter (Mitutoyo, Japan) at intervals of 30 and 60 minute after injection.

Test [12] concerns venoms and isolated PLA2s. The test can be described thus: phospholipase A2 activity (indirect haemolytic). The following applies: induced by venoms of B. jararacussu and C. durissus terrificus and isolated PLA2s. The format is biochemical. As for the experimental part:
(§3) Indirect haemolytic activity is tested using agarose-erythrocyte-egg yolk gel as a substrate. The compounds are tested following incubation with the pure venoms or PLA2 in varying ratios (m/m).

Test [13] has as its system basic Asp49 PLA2s (BthTX-II and CB). Kind of test: phospholipase A2 activity, basic Asp49 PLA2s. The following applies: compared with pure venoms and acid isoform Asp49 BthA-1-PLA2, FIG. 5C. The format is biochemical, B. jararacussu and C. d. terrificus. As for the experimental part:
as §3

The structures appear in SMILES notation.

Chain of Class I metalloprotease neuwiedase (Q9I9R4 whole entry, looked up): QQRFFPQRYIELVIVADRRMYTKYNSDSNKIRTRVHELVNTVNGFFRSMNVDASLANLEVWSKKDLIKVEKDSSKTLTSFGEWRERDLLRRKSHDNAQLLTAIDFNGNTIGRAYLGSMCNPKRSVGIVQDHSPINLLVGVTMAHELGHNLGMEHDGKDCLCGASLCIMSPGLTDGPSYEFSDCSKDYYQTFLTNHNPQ

For the compound `O=c1cc(CO)[nH]c2ccccc12` [Compound 1, 2-hydroxymethyl-1,4-dihydro-4-quinolinone], in test [1], the “inhibition of coagulant serine proteases” value was “partial inhibition”.

Consider `COc1ccc2[nH]c(CO)cc(=O)c2c1` [Compound 2, 2-hydroxymethyl-6-methoxy-1,4-dihydro-4-quinolinone], for which, in test [1], the “inhibition of coagulant serine proteases” value was “partial inhibition”. For the same compound, the “inhibition of the haemorrhagic metalloprotease of the venoms” value in test [2] was “potential of inhibiting”. Also, in test [3], the “effect on haemorrhages induced by venom” value was “inhibits”. Besides, the “inhibition of proteolytic activity on casein” value in test [4] is “significantly inhibits”. Moreover, the “inhibition of proteolytic activity” value in test [5] is “approximately 67%”. For the same compound, in test [6], the “inhibition of coagulant activity in human plasma” value is listed as “significantly inhibits”. For the same compound, the action on coagulation result in [7] and in test [8] was “powerful coagulation action” each time. The “inhibition of fibrinogenolytic activity” value in test [9] is recorded as “inhibition”. The effect on myotoxicity result in [10] is reported as “partially reduced”. The effect on oedema entry in test [11] is “partially reduced”. In addition, the “effect on activity for phospholipase” value in [12] was “partially reduced”. Moreover, the “neutralising PLA2 activity” value in test [13] is listed as “more efficient”.

On to `CCOc1cc(CO)nc2ccc(OC)cc12` [Compound 10, 4-ethoxy-2-hydroxymethyl-6-methoxyquinoline], for which, in test [1], the “inhibition of coagulant serine proteases” value is “partial inhibition”.

Take `CCOCc1cc(OCC)c2cc(OC)ccc2n1` [Compound 11, 4-ethoxy-2-ethoxymethyl-6-methoxyquinoline]: the “inhibition of coagulant serine proteases” value in test [1] was “partial inhibition”.

With `O=C(O)c1cn(C2CC2)c2cc(N3CCNCC3)c(F)cc2c1=O` [Compound 13, 1-ciclopropyl-6-fluoro-1,4-dihydro-4-oxo-7-(1-piperazinyl)-3-quinolinecarboxylic acid, reference compound], the “inhibition of coagulant serine proteases” value in [1] is given as “partial inhibition”.
